This note sets out measurements from patent publication US5159061A, “Atrial natriuretic peptide derivative” (Takeda Chemical Industries, Ltd., priority 1986, dated 1992).

Like-named read-outs stand apart in the source and are kept apart here. Where a SMILES comes first, the peptide text is derived from it. Bridges are numbered along the chain shown (N, C = ends). [ ]: non-standard residue; d: D form. Aib = CC(C)(N)C(=O)O

The conditions of series [1]: the molecule shown is the open-chain precursor, disulfide bond, 2 steps.
Series [2] relates to spontaneously hypertensive rats (SHR). Briefly: Hypotensive action in spontaneously hypertensive rats (SHR). Format: in vivo, rat. Particulars: male SHR, 20 weeks old; intravenous 100 μg/250 μl/kg in physiological saline; maximum decrease in blood pressure, difference from preadministration value. As to the method: Hypotensive action in spontaneously hypertensive rats (SHR)
Three male SHRs at the age of 20 weeks in each group were anesthetized with pentobarbital (50 mg/kg, intraperitoneal administration); SP-10 and SP-45 polyethylene tubes (manufactured by Natsume Seisakusho, Japan) were inserted respectively into the groin artery and vein, and through each of these a cannula was passed to the neck site via the back subcutaneous tissue, and one end of the cannula was fixed there. The rats were used in experiments the following day. As a α-hANP derivatives, [Aib^6 ]-α-hANP[6-28] obtained in Example 1 and [Aib^6,Ile^12 ]-α-hANP[6-28] obtained in Example 8, and as a control, α-hANP[7-28], in solution in physiological saline, were each intravenously administered in the ratio of 100 μg/250 μl/kg of body weight. Hypotensive activities are shown as a degree of the maximum decrease in blood pressure (difference from the preadministration value) that occurred after the administration of the subject compound.

The mark [3] stands for this setting: 53-membered ring, air (after HF deprotection).
Setting [4] is: 53-membered ring, air/NH4OAc/NH3 pH 6.9, water, 0.052 mM, 25.0 °C.

As to “H-Cys-Phe-Gly-Arg-Met-Asp-Arg-Ile-Gly-Ala-Gln-Ser-Gly-Leu-Gly-Cys-Asn-Ser-Phe-Arg-Tyr-OH”, the ring closure, isolated yield in series [1] (50-membered ring, air/NH4OAc/NH3 pH 6.9, water, 0.056 mM, 25.0 °C) amounted to 18%.
For `CC[C@H](C)[C@@H]1NC(=O)[C@H](CCCNC(=N)N)NC(=O)[C@H](CC(=O)O)NC(=O)[C@H]([C@@H](C)CC)NC(=O)[C@H](CCCNC(=N)N)NC(=O)CNC(=O)CNC(=O)[C@H](Cc2ccccc2)NC(=O)[C@@H](NC(=O)C(C)(C)N)CSSC[C@@H](C(=O)N[C@@H](CC(N)=O)C(=O)N[C@@H](CO)C(=O)N[C@@H](Cc2ccccc2)C(=O)N[C@@H](CCCNC(=N)N)C(=O)N[C@@H](Cc2ccc(O)cc2)C(=O)O)NC(=O)CNC(=O)[C@H](CC(C)C)NC(=O)CNC(=O)[C@H](CO)NC(=O)[C@H](CCC(N)=O)NC(=O)[C@H](C)NC(=O)CNC1=O` [[Aib^6, Ile^12]-α-hANP[6-28]] (H-[Aib]CFGGRIDRIGAQSGLGCNSFRY-OH; disulfide 2-18), the “Degree of Decrease in Blood Pressure” value in series [2] is reported as -90 ΔmmHg.
As for “H-Aib-Cys-Phe-Gly-Gly-Arg-Nle-Asp-Arg-Ile-Gly-Ala-Gln-Ser-Gly-Leu-Gly-Cys-Asn-Ser-Phe-Arg-Tyr-OH”, the ring closure, isolated yield in series [1] (setting [3]) turned out to be 14.4%.
In series [1] (setting [3]), “H-dAla-Cys-Phe-Gly-Gly-Arg-Met-Asp-Arg-Ile-Gly-Ala-Gln-Ser-Gly-Leu-Gly-Cys-Asn-Ser-Phe-Arg-Tyr-OH” had a ring closure, isolated yield of 17%.
“H-Cys-Phe-βAla-Arg-Met-Asp-Arg-Ile-Gly-Ala-Gln-Ser-Gly-Leu-Gly-Cys-Asn-Ser-Phe-Arg-Tyr-OH” came in with a ring closure, isolated yield in series [1] (51-membered ring, air/NH4OAc/NH3 pH 6.9, water, 0.056 mM, 25.0 °C) of 17%.
Regarding “H-Cys-Phe-Gly-Gly-Arg-Met-Asp-Arg-Ile-Gly-Ala-Gln-Ser-Gly-Leu-Gly-Cys-Asn-Ser-Phe-dArg-Tyr-OH”, in series [1] (setting [3]), the ring closure, isolated yield worked out at 25%.
For the compound “H-Cys-Phe-Gaba-Arg-Met-Asp-Arg-Ile-Gly-Ala-Gln-Ser-Gly-Leu-Gly-Cys-Asn-Ser-Phe-Arg-Tyr-OH”, the ring closure, isolated yield in series [1] (52-membered ring) stood at 20%.
“H-Ile-Cys-Phe-Gly-Gly-Arg-Met-Asp-Arg-Ile-Gly-Ala-Gln-Ser-Gly-Leu-Gly-Cys-Asn-Ser-Phe-Arg-Tyr-OH” came in with a ring closure, isolated yield in series [1] (setting [3]) of 11%.
Take `CC[C@H](C)[C@@H]1NC(=O)[C@H](CCCNC(=N)N)NC(=O)[C@H](CC(=O)O)NC(=O)[C@H](CCSC)NC(=O)[C@H](CCCNC(=N)N)NC(=O)CNC(=O)CNC(=O)[C@H](Cc2ccccc2)NC(=O)[C@@H](NC(=O)C(C)(C)N)CSSC[C@@H](C(=O)N[C@@H](CC(N)=O)C(=O)N[C@@H](CO)C(=O)N[C@@H](Cc2ccccc2)C(=O)N[C@@H](CCCNC(=N)N)C(=O)N[C@@H](Cc2ccc(O)cc2)C(=O)O)NC(=O)CNC(=O)[C@H](CC(C)C)NC(=O)CNC(=O)[C@H](CO)NC(=O)[C@H](CCC(N)=O)NC(=O)[C@H](C)NC(=O)CNC1=O` [[Aib^6]-α-hANP[6-28]] (H-[Aib]CFGGRMDRIGAQSGLGCNSFRY-OH; disulfide 2-18): in series [2], the “Degree of Decrease in Blood Pressure” value is -70 ΔmmHg.
Regarding “H-Ala-Cys-Phe-Gly-Gly-Arg-Met-Asp-Arg-Ile-Gly-Ala-Gln-Ser-Gly-Leu-Gly-Cys-Asn-Ser-Phe-Arg-Tyr-OH”, the ring closure, isolated yield in series [1] (setting [3]) came out at 14%.
As for “H-Cys-Phe-dAla-Gly-Arg-Met-Asp-Arg-Ile-Gly-Ala-Gln-Ser-Gly-Leu-Gly-Cys-Asn-Ser-Phe-Arg-Tyr-OH”, the ring closure, isolated yield in series [1] (53-membered ring, air/NH4OAc/NH3 pH 6.9, water, 0.053 mM, 25.0 °C) was found to be 16%.
The compound “H-Cys-Phe-Gly-Gly-Arg-DL-Chg-Asp-Arg-Ile-Gly-Ala-Gln-Ser-Gly-Leu-Gly-Cys-Asn-Ser-Phe-Arg-Tyr-OH” showed a ring closure, isolated yield in series [1] (setting [3]) of 38%.
The same measure, in the same setting: in the case of “H-Aib-Cys-Phe-Gly-Gly-Arg-Leu-Asp-Arg-Ile-Gly-Ala-Gln-Ser-Gly-Leu-Gly-Cys-Asn-Ser-Phe-Arg-Tyr-OH” it was 22%.
In series [1] (setting [4]), “H-Achc-Cys-Phe-Gly-Gly-Arg-Met-Asp-Arg-Ile-Gly-Ala-Gln-Ser-Gly-Leu-Gly-Cys-Asn-Ser-Phe-Arg-Tyr-OH” returned a ring closure, isolated yield of 22%.
“H-Aib-Cys-Phe-Gly-Gly-Arg-Met-Asp-Arg-Ile-Gly-Ala-Gln-Ser-Gly-Leu-Gly-Cys-Asn-Ser-Phe-Arg-Tyr-OH” showed a ring closure, isolated yield in series [1] (setting [4]) of 12%.
In turn, “H-Val-Cys-Phe-Gly-Gly-Arg-Met-Asp-Arg-Ile-Gly-Ala-Gln-Ser-Gly-Leu-Gly-Cys-Asn-Ser-Phe-Arg-Tyr-OH” had a ring closure, isolated yield in series [1] (setting [3]) of 16%.
For “H-Cys-Phe-Ava-Arg-Met-Asp-Arg-Ile-Gly-Ala-Gln-Ser-Gly-Leu-Gly-Cys-Asn-Ser-Phe-Arg-Tyr-OH”, in series [1] (53-membered ring, air/NH4OAc/NH3 pH 6.9, water, 0.055 mM, 25.0 °C), the ring closure, isolated yield was 30%.
